Results as given in US20250169501A1, “Metal(loid)-Based Compositions and Uses Thereof Against Bacterial Biofilms” (CCREST Laboratories Inc., priority 2022, published 2025).
Like-named read-outs stand apart in the source and are kept apart here.

Experiments:
P. aeruginosa biofilm [1] = type: cell-based, Pseudomonas aeruginosa
P. aeruginosa biofilm [2] = type: cell-based, Pseudomonas aeruginosa; remark: listed apart in the source
P. aeruginosa = type: cell-based, Pseudomonas aeruginosa; conditions: SWF; for recovery of bacteria in the same fresh media after treatment: read after 2, 4 and 24 hours; for dilution in which bacteria recovered when agent used alone: vs combination
Text: For the MBC and recovery potency of bacteria. […] The last well that had no bacterial growth was defined as the MBC.

P. aeruginosa PAO1 = assay: In vitro resistance acquisition, serial passage; type: cell-based, Pseudomonas aeruginosa; conditions: SWF, sublethal (1/8 MIC) concentration, 7 days
Protocol: Serial passage of growth as a screen for resistant P. aeruginosa PAO1 was carried out for 7 days in SWF supplemented with sublethal (1/8 dilution from the MIC) concentrations of Ag, Te, and Ag—Te mixture. […] Strains of P. aeruginosa PAO1 were grown in sublethal (1/8th MIC) concentrations of Ag, Te or a mixture of the two antimicrobials, for 7 days.
The impact of the MBAs on antibiotic resistance was also tested. Serial passage of growth as a screen for resistant P. aeruginosa PAO1 was performed for 7 days in SWF supplemented with sublethal (1/8 dilution from the MIC) concentrations of Ag, Te, and Ag—Te mixture.

39 clinical isolates = assay: Antibiotic resistance of the clinical isolates; type: cell-based; conditions: out of 39 clinical isolates

| Compound | Inhibition of P. aeruginosa biofilm (MBIC) (P. aeruginosa biofilm [1]; LB, in 48 h) [mM] | Inhibition of P. aeruginosa biofilm (MBIC) (P. aeruginosa biofilm [1]; MHB, in 48 h) [mM] | Inhibition of P. aeruginosa biofilm (MBIC) (P. aeruginosa biofilm [1]; SWF, in 48 h) [mM] | Eradication of P. aeruginosa biofilm (MBEC) (P. aeruginosa biofilm [2]; LB, in 24 h) [mM] | Eradication of P. aeruginosa biofilm (MBEC) (P. aeruginosa biofilm [2]; MHB, in 24 h) [mM] | Eradication of P. aeruginosa biofilm (MBEC) (P. aeruginosa biofilm [2]; SWF, in 24 h) [mM] | recovery of bacteria in the same fresh media after treatment (P. aeruginosa) | dilution in which bacteria recovered when agent used alone (P. aeruginosa) | occurrence of resistance during serial passage (P. aeruginosa PAO1) | Inhibition of P. aeruginosa biofilm (MBIC) (P. aeruginosa biofilm [1]) [mM] | Eradication of P. aeruginosa biofilm (MBEC) (P. aeruginosa biofilm [2]) [mM] | clinical isolates resistant to the antibiotic (39 clinical isolates) |
| --- | --- | --- | --- | --- | --- | --- | --- | --- | --- | --- | --- | --- |
| O=[N+]([O-])[O-].[Ag+] [Ag, silver nitrate] | 0.125 | 0.03 | 0.25 | 0.065 | 0.03 | 0.5 | couldn't inhibit the recovery of bacteria | three-fold higher dilution | after two days |  |  |  |
| [Au+3].[Cl-].[Cl-].[Cl-].[Cl-] [Au, tetrachloroaurate] | 0.5 | 0.25 | 0.25 | 0.25 | 0.25 | 1 |  |  |  |  |  |  |
| O=S(=O)([O-])[O-].[Cu+2] [Cu, copper sulfate] |  |  |  |  |  |  |  |  |  | 8 | 6.25 |  |
| O=[N+]([O-])[O-].O=[N+]([O-])[O-].O=[N+]([O-])[O-].[Ga+3] [Ga, gallium nitrate] | 12.5 | 12.5 | 25 | 3 | 3 | 12.5 |  |  |  |  |  |  |
| O=[Se](O)O [Se, sodium selenite] | >50 | >50 | >50 | >50 | >50 | >50 |  |  |  |  |  |  |
| O=[Te]([O-])[O-].[K+].[K+] [Te, potassium tellurite] | 0.5 | 0.5 | 0.5 | 0.5 | 0.5 | 0.5 | couldn't inhibit the recovery of bacteria | two-fold higher dilution | after five days |  |  |  |
| gentamicin |  |  |  |  |  |  |  |  |  |  |  | 15 (38%) isolates (%) |
